Test results as given in article PMC12807533 (Science (New York, N.Y.), 2025).

Assays:
XanP (His-XanP) = tested on: T1, XanP (His-XanP)
T1 construct: gene XOC_0142
T1 sequence (G7TIV3 32-261 limits assumed): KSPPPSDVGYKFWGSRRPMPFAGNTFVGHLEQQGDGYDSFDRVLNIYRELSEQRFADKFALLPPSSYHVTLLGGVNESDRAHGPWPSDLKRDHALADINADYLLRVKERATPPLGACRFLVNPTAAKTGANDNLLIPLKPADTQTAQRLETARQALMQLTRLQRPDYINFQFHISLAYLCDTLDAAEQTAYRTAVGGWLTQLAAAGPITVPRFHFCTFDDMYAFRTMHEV

Sequence of AvrBs2 (AvrBs2-FLAG) (G7TIV7 1-714): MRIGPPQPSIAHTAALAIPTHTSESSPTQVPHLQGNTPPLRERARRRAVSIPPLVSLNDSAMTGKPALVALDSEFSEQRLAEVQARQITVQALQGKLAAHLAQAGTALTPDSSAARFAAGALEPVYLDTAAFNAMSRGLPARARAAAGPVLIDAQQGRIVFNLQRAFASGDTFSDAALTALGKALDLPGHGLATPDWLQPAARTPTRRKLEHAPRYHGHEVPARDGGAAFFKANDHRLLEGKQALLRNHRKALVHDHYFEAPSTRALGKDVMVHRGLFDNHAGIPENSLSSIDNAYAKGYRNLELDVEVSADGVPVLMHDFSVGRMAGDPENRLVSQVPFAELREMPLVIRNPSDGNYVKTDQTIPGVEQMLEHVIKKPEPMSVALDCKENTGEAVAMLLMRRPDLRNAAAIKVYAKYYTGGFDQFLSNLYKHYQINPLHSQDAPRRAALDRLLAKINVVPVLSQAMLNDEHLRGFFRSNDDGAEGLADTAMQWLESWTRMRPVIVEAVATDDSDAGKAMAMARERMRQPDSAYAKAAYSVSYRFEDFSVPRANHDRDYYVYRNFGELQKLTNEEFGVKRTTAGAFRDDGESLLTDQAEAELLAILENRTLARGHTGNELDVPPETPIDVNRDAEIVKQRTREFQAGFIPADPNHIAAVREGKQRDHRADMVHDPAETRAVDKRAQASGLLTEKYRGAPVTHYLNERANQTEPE

Row | SMILES | TLC of hydrolysis products (XanP (His-XanP)) | TLC and HILIC-ESI-MS of in vitro xanthosan synthesis (AvrBs2 (AvrBs2-FLAG))
1 | O=P(O)(O)O[C@H]1O[C@H](CO)[C@H](O)[C@H](O)[C@H]1O [Gal-1-P] | the other product migrated similarly to Gal-1-P, but not Gal-6-P | 
2 | O=P1(O)OC[C@H]2O[C@H](OP(=O)(O)OC[C@H]3O[C@H](O1)[C@H](O)[C@@H](O)[C@H]3O)[C@H](O)[C@@H](O)[C@H]2O [xanthosan, bis-(1,6)-cyclic dimeric α-D-galactose-phosphate] |  | AvrBs2 converts UDP-α-D-galactose into xanthosan
